Assay type in all cases: in vivo
Assay [1] relates to Alopecurus myosuroides. In words: Post-emergence herbicidal activity against ALOMY. The settings on record: Alopecurus myosuroides, 504 h, dosage 320 g/ha, rated about 3 weeks after treatment. The method in brief:
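Greenhouse-grown plants treated at one-leaf stage, 2 to 3 weeks after sowing, with WP or EC formulations sprayed as aqueous suspension/emulsion plus 0.5% additive at 600 l/ha. Activity rated visually about 3 weeks later versus untreated controls (100% = plants dead, 0% = like control).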

Assay [2] relates to Pharbitis purpurea. In words: Post-emergence herbicidal activity against PHBPU. The following applies: Ipomoea purpurea, 504 h, dosage 320 g/ha, rated about 3 weeks after treatment. The essentials: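 Greenhouse-grown plants sprayed post-emergence at the one-leaf stage, 2 to 3 weeks after sowing, with WP or EC formulations plus 0.5% additive at 600 l/ha water. Activity rated visually after about 3 weeks versus untreated controls (100% = plants dead, 0% = like control).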

The test system of assay [3] is Polygonum convolvulus. In words: Post-emergence herbicidal activity against POLCO. The settings on record: Fallopia convolvulus, 504 h, dosage 320 g/ha, rated about 3 weeks after treatment. The method in brief: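 Greenhouse weeds in sandy loam were sprayed at the one-leaf stage, 2–3 weeks after sowing, with WP or EC formulations plus 0.5% additive at 600 l/ha water. About 3 weeks later, damage was rated visually against untreated controls, where 100% means plants dead and 0% means like control.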

Assay [4] concerns Stellaria media. The assay can be described thus: Post-emergence herbicidal activity against STEME. The settings on record: Stellaria media, 504 h, dosage 320 g/ha, rated about 3 weeks after treatment. The essentials:
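Greenhouse plants treated at one-leaf stage, 2–3 weeks after sowing, by spraying WP or EC formulations with 0.5% additive at 600 l/ha water. Visual rating about 3 weeks later versus untreated controls (100% = plants dead, 0% = like controls).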

Assay [5] has as its system Avena fatua. In words: Pre-emergence herbicidal activity against AVEFA. The following applies: Avena fatua, 504 h, dosage 80 g/ha, read-out: Pre-emergence herbicidal activity against AVEVA in % (AVEFA). The source says: 1. Pre-Emergence Herbicidal Action and Crop Plant Compatibility Seeds of monocotyledonous and dicotyledonous weed plants and crop plants are placed in plastic or wood fiber pots and covered with soil. The compounds of the invention, formulated in the form of wettable powders (WP) or as emulsion concentrates (EC), are then applied onto the surface of the covering soil as aqueous suspension or emulsion with addition of 0.5% additive at a water application rate of 600 l/ha (converted). After the treatment, the pots are placed in a greenhouse and kept under good growth conditions for the trial plants. After about 3 weeks, the effect of the preparations is scored visually in comparison with untreated controls as percentages. For example, 100% activity=the plants have died, 0% activity=like control plants. AMARE: Amaranthus retroflexus AVEFA: Avena fatua

Assay [6] relates to Lolium rigidum. The assay can be described thus: Post-emergence herbicidal activity against LOLRI. The following applies: Lolium rigidum, 504 h, dosage 320 g/ha, rated about 3 weeks after treatment. As for the experimental part:
(§1) LOLRI: Lolium rigidum PHBPU: Pharbitis purpurea 2. Post-Emergence Herbicidal Action and Crop Plant Compatibility Seeds of monocotyledonous and dicotyledonous weeds and crop plants are placed in sandy loam in plastic or wood-fiber pots, covered with soil and cultivated in a greenhouse under controlled growth conditions. 2 to 3 weeks after sowing, the test plants are treated at the one-leaf stage. The compounds of the invention, formulated in the form of wettable powders (WP) or as emulsion concentrates (EC), are then sprayed onto the green parts of the plants as aqueous suspension or emulsion with addition of 0.5% additive at a water application rate of 600 l/ha (converted). After the test plants had been kept in the greenhouse under optimum growth conditions for about 3 weeks, the activity of the preparations is rated visually in comparison to untreated controls. For example, 100% activity=the plants have died, 0% activity=like control plants.

Assay [7] concerns Hordeum murinum. In words: Post-emergence herbicidal activity against HORMU. The following applies: Hordeum murinum, 504 h, dosage 320 g/ha. The essentials:
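Greenhouse pot plants sprayed post-emergence at one-leaf stage (2-3 weeks after sowing) with WP or EC formulations, 0.5% additive, 600 l/ha water. Visual rating about 3 weeks later versus untreated controls: 100% = plants dead, 0% = like control.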

Assay [8] has as its system Abutilon theophrasti. In words: Post-emergence herbicidal activity against ABUTH. The following applies: Abutilon theophrasti, 504 h, dosage 320 g/ha, rated about 3 weeks after treatment. As for the experimental part: as §1, with “ABUTH: Abutilon theophrasti ALOMY: Alopecurus myosuroides” for “LOLRI: Lolium rigidum PHBPU: Pharbitis purpurea”

With `C=CC1(C(=O)N[C@H]2CO[C@@H](C(=O)OC)C2)CC(c2cccc(F)c2)=NO1` (relative stereo) [I-07, methyl cis-4-[[3-(3-fluorophenyl)-5-vinyl-4H-isoxazole-5-carbonyl]amino]tetrahydrofuran-2-carboxylate], the pest or weed control at 320 g/ha was 90% in assay [1], 90% in assay [2], 80% in assay [3] and 90% in assay [4].

As to `C=CC1(C(=O)NC2=C(C(=O)OCC)COC2)CC(c2cc(F)cc(F)c2)=NO1` (stereo not shown) [I-23, ethyl 4-[[3-(3,5-difluorophenyl)-5-vinyl-4H-isoxazole-5-carbonyl]amino]-2,5-dihydrofuran-3-carboxylate], the pest or weed control at 80 g/ha in assay [5] was found to be 90%. In addition, the pest or weed control at 320 g/ha in assay [1] stood at 100%; in assay [6], 90%; in assay [2] it was 90%; in assay [3] it was 90%; in assay [4], 90%; in assay [7], 100%.

`COC(=O)[C@H]1C[C@@H](NC(=O)C2(OC)CC(c3cc(C)cc(Br)c3)=NO2)CO1` (relative stereo) [I-08, methyl cis-4-[[3-(3-bromo-5-methylphenyl)-5-methoxy-4H-isoxazole-5-carbonyl]amino]tetrahydrofuran-2-carboxylate]: the results for the pest or weed control at 320 g/ha in assay [2] and in assay [3] were 90% and 80%, respectively.

Consider `COC(=O)[C@H]1C[C@H](NC(=O)[C@@]2(C)CC(c3cc(F)cc(F)c3)=NO2)CO1` (mixture of isomers) [I-55, methyl trans-4-[[(5R)-3-(3,5-difluorophenyl)-5-methyl-4H-isoxazole-5-carbonyl]amino]tetrahydrofuran-2-carboxylate], for which the pest or weed control at 320 g/ha in assay [1], in assay [6], in assay [8], in assay [2], in assay [3] and in assay [4] was 90% in each case. The pest or weed control at 320 g/ha in assay [7] came to 100%.

Turning to `COC(=O)[C@H]1C[C@@H](NC(=O)[C@@]2(C)CC(c3cc(F)cc(F)c3)=NO2)CO1` (mixture of isomers) [I-09, methyl cis-4-[[(5R)-3-(3,5-difluorophenyl)-5-methyl-4H-isoxazole-5-carbonyl]amino]tetrahydrofuran-2-carboxylate], in assay [5], the pest or weed control at 80 g/ha is 90%. Also, the pest or weed control at 320 g/ha in assay [1] is 90%; in assay [2] it was 90%; in assay [3] it was 80%; in assay [4], 90%.

As for `COC(=O)C1=C[C@H](NC(=O)C2(C)CC(c3cccc(F)c3)=NO2)CO1` (stereo partly drawn) [I-39, methyl (3S)-3-[[3-(3-fluorophenyl)-5-methyl-4H-isoxazole-5-carbonyl]amino]-2,3-dihydrofuran-5-carboxylate], the pest or weed control at 320 g/ha in assay [1] is 100%; in assay [6], 100%; in assay [8] it was 80%; in assay [2], 90%; in assay [3], 80%; in assay [4] it was 90%. Moreover, in assay [7], the pest or weed control at 320 g/ha is 100%.

Turning to `COC(=O)[C@H]1C[C@@H](NC(=O)C2(OC)CC(c3cc(F)cc(F)c3)=NO2)CO1` (relative stereo) [I-05, methyl cis-4-[[3-(3,5-difluorophenyl)-5-methoxy-4H-isoxazole-5-carbonyl]amino]tetrahydrofuran-2-carboxylate], the pest or weed control at 320 g/ha in assay [1], in assay [2], in assay [3] and in assay [4] was 90% throughout.

With `COC(=O)[C@H]1C[C@@H](NC(=O)C2(C)CC(c3cc(C)cc(Br)c3)=NO2)CO1` (relative stereo) [I-04, methyl cis-4-[[3-(3-bromo-5-methylphenyl)-5-methyl-4H-isoxazole-5-carbonyl]amino]tetrahydrofuran-2-carboxylate], the pest or weed control at 320 g/ha in assay [1] was 90%; in assay [2], 90%; in assay [3] it was 80%; in assay [4], 90%.

For the molecule `C=CC1(C(=O)N[C@H]2CO[C@@H](C(=O)OC)C2)CC(c2cc(Cl)cc(Cl)c2)=NO1` (relative stereo) [I-03, methyl cis-4-[[3-(3,5-dichlorophenyl)-5-vinyl-4H-isoxazole-5-carbonyl]amino]tetrahydrofuran-2-carboxylate], the pest or weed control at 320 g/ha in assay [1] came to 90%; in assay [2], 90%; in assay [3], 80%; in assay [4], 90%.

In the case of `COC(=O)[C@H]1C[C@@H](NC(=O)C2(OC)CC(c3ccccc3)=NO2)CO1` (relative stereo) [I-14, methyl cis-4-[(5-methoxy-3-phenyl-4H-isoxazole-5-carbonyl)amino]tetrahydrofuran-2-carboxylate], the pest or weed control at 320 g/ha in assay [1] worked out at 100%; in assay [2], 80%; in assay [3] it was 90%; in assay [4], 90%.

As to `COC(=O)[C@H]1C[C@@H](NC(=O)C2(C(F)(F)F)CC(c3cc(F)cc(F)c3)=NO2)CO1` (relative stereo) [I-06, methyl cis-4-[[3-(3,5-difluorophenyl)-5-(trifluoromethyl)-4H-isoxazole-5-carbonyl]amino]tetrahydrofuran-2-carboxylate], the pest or weed control at 80 g/ha in assay [5] is 90%. Also, the pest or weed control at 320 g/ha in assay [1] is 90%; in assay [2], 90%; in assay [3] it was 80%; in assay [4], 80%.

Turning to `COC(=O)[C@@]1(OC)C[C@@H](NC(=O)C2(C)CC(c3cccc(F)c3)=NO2)CO1` (stereo partly drawn) [I-47, methyl (2R,4R)-4-[[3-(3-fluorophenyl)-5-methyl-4H-isoxazole-5-carbonyl]amino]-2-methoxytetrahydrofuran-2-carboxylate], the pest or weed control at 320 g/ha in assay [1] was 100%; in assay [6] it was 100%; in assay [8], 80%; in assay [2] it was 90%; in assay [3], 80%; in assay [4] it was 90%. The pest or weed control at 320 g/ha in assay [7] was determined as 100%.

Regarding `C=C[C@]1(C(=O)N[C@@H]2CO[C@@H](C(=O)OC)C2)CC(c2cc(F)cc(F)c2)=NO1` (mixture of isomers) [I-56, methyl trans-4-[[(5S)-3-(3,5-difluorophenyl)-5-vinyl-4H-isoxazole-5-carbonyl]amino]tetrahydrofuran-2-carboxylate], the pest or weed control at 320 g/ha in assay [1], in assay [6], in assay [8], in assay [2], in assay [3] and in assay [4] was 90% each time. Moreover, the pest or weed control at 320 g/ha in assay [7] turned out to be 90%.

(Values after patent US11597724B2, “Herbicidally active 3-phenylisoxazoline-5-carboxamides of tetrahydro and dihydrofuran carboxylic acids and esters” (Bayer Aktiengesellschaft, priority 2017, dated 2023).)
